{"source": "patent US20160113900A1", "about": "“INHIBITORS OF MITOCHONDRIAL STAT3 AND USES THEREOF IN MODULATION OF MAST CELL EXOCYTOSIS” (Yissum Research Development Company of the Hebrew …, priority 2014, published 2016)", "assay_type_in_all_cases": "cell-based, rat", "key": {"[1]": {"test_system": "STAT3 serine 727 phosphorylation", "assay": "Western blot of STAT3 serine 727 phosphorylation in activated RBL cells", "details": "RBL cells, 60 μM Stattic 20 min, immunologically activated 5 min", "procedure": "RBL cells were washed once in cold PBS prior to homogenization. 9×10^6 cells were homogenized in buffer A (320 mm sucrose, 5 mm Tris, 2 mm EGTA, pH 7.4) with 10 strokes of a Teflon Dounce homogenizer. The procedure was performed at 4° C. The homogenate was centrifuged for 3 min at 2000 g and the supernatant kept. This was repeated twice, and the supernatants combined then centrifuged for 3 min at 2000 g. to remove the nuclei and cell debris. The supernatant was transferred to a clean tube and centrifuged for 10 min at 12,000 g to pellet mitochondria, washed twice resuspended in a small volume of buffer A and stored at −70° C. In order to prepare mitoplasts, the mitochondrial pellet was resuspended in buffer A with the addition of 0.02% (w/v) digitonin. The pellet was resuspended and washed twice in large volumes of digitonin-free buffer A. […] Cells and mitochondria were vortexed and incubated on ice for 15 min. The lysates were then centrifuged at 14,000 g for 15 min and pellets were discarded. The protein concentration of each sample was determined using Bradford Reagent (Sigma-Aldrich). Proteins were resolved by 10-15% SDS-PAGE under reducing conditions and transferred to polyvinylidene difluoride membranes (Millipore Billerica, Ma). […] The membranes were washed three times with TBST for 5 mM before and after each incubation with secondary Ab. The proteins were detected with the appropriate secondary Ab (1 h; room temperature) coupled to HRP-conjugated goat anti-rabbit or anti-mouse Ab and visualized by chemiluminescence according to the manufacturer's instructions (Pierce)."}, "[2]": {"test_system": "RBL cells", "assay": "ATP determination (ATPLite luminescence) in RBL cells", "details": "RBL cells, 60 μM Stattic, 20 min", "procedure": "(§1) RBL-2H3 cells were maintained in RPMI 1640 medium as previously described1. Bone marrow was isolated from 5-6 week-old mice, and BMMC were cultured in RPMI medium supplemented with 20 ng/ml interleukin-3 (IL-3) and 20 ng/ml SCF as previously described2, 3. Cells were generally grown for a minimum of 4 weeks and used when >90% of the population expressed FcεRI. BMMC and RBL cells were sensitized first with anti-DNP IgE monoclonal antibody (SPE-7; Sigma-Aldrich Corp.) and then challenged with DNP-BSA (Sigma-Aldrich Corp.). IgE antibody was centrifuged (18,000 g, 5 min) before use to remove aggregates. […] For glycolysis elimination cells were maintained in glucose-free RPMI supplemented with 10% dialyzed fetal calf serum and 5 mM galactose.\nATP levels were measured using the ATPLite luminescence-based assay according to the manufacturer's instructions (Perkin Elmer, Waltham, Mass., USA)."}, "[3]": {"test_system": "RBL cells", "assay": "β-Hexosaminidase release assay (degranulation) in RBL cells", "details": "RBL cells", "procedure": "as §1\n1×104 RBL or 3×104 BMMC were immunologically activated as described above. After IgE incubation, the cells were washed three times with 5 mL of degranulation buffer (NaCl 130 mM, KCl 5 mM, Glucose 5.6 mM, MgCl2 1 mM, CaCl2 1.2 mM, Hepes pH 7.4 10 mM, BSA 0.1%) and resuspended in 200 μL of the same buffer with DNP-albumin for 30 min. The release of β-hexosaminidase was determined in triplicates in a 96-well plate. Aliquots (20 μL) of supernatants and cell lysates were incubated for 30 minutes with 100 μL of substrate solution (1.3 mg/mL p-nitrophenyl-b-D-2-acetamido-2-deoxyglucopyranozide in 0.1 M citrate [pH 4.51]). The reaction was stopped by the addition of 200 μL of 0.2 M glycine (pH 10.7). The plate OD was read in an enzyme-linked immunosorbent assay (ELISA) reader at a wavelength of 405 nm Percent release values for each experimental condition were calculated3."}}, "data": [{"smiles": "O=[N+]([O-])c1ccc2c(c1)S(=O)(=O)C=C2", "note": "[Stattic, 6-Nitrobenzo[b]thiophene 1,1-dioxide, reference compound]", "values": [{"measurement": "phosphorylation levels of STAT3 serine 727 in total cell lysate", "setting": "[1]", "result": "significant reduction"}, {"measurement": "reduction in ATP levels", "setting": "[2]", "result": "72.0±9.0", "unit": "%"}, {"measurement": "degranulation", "setting": "[3]; 5 min incubation with Stattic (data not shown)", "result": "totally abolished"}, {"measurement": "β-hexosaminidase release", "setting": "[3]; IgE/DNP-BSA, 60 μM Stattic 20 min", "result": "completely abolished"}, {"measurement": "effect on IgE-Ag mediated β-hexosaminidase release, dependence on concentration", "setting": "[3]; stated concentrations of Stattic (FIG. 6)", "result": "concentration dependent"}]}]}
